Like-named read-outs stand apart in the source and are kept apart here.
Columns and labels:
Format in all cases: cell-based
human TAAR1 receptors = target: T1, human TAAR1 receptors (Homo sapiens, UniProt Q96RJ0); test: TAAR1 Agonism Assay: cAMP HTRF assay for Gs coupled receptor TAAR1 (Euroscreen FAST-0987C); conditions: CHO-K1 cells expressing human TAAR1, cAMP HTRF
T1 construct: host or cells: CHO-K1
T1 sequence (Q96RJ0 1-339): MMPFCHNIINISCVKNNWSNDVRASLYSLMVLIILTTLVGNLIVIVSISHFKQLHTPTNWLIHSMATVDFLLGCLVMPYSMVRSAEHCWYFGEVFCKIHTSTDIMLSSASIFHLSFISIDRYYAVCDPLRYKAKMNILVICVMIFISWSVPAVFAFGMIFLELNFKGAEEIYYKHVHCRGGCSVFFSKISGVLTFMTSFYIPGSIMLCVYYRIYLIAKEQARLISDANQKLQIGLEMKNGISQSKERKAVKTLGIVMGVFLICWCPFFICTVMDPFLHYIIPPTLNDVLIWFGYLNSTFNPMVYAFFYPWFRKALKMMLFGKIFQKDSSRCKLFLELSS
Summary of the method: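 cAMP accumulation detected by HTRF fluorescence ratio, reagents added in lysis buffer and incubated 1 h at about room temperature. Beforehand, cells (about 3,000 per well) sat with test compound at ten concentrations from 0.3 to 10,000 nM in duplicate for roughly 30 min at about room temperature; tyramine dose-response run alongside.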

human 5-HT2A receptor = target: T2, human 5-HT2A receptor (Homo sapiens, UniProt P28223); test: 5HT2A Antagonism Assay (Euroscreen FAST-05051), IP-One HTRF
T2 construct: host or cells: CHO-K1
Summary of the method: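 CHO-K1 cells expressing receptor, 20,000/well, co-incubated with test compound and reference agonist at its EC80 for 60 min at 37 °C. IP1 accumulation read by HTRF after ~1 h detection at room temperature. Compounds tested in duplicate at 0.3–10,000 nM.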

human 5-HT7 receptor = target: T3, human 5-HT7 receptor (Homo sapiens, UniProt P34969); test: 5HT7 Antagonism Assay (Euroscreen FAST-0499C), cAMP HTRF; conditions: CHO-K1 cells expressing human 5-HT7, reference agonist at EC80, cAMP HTRF
T3 construct: host or cells: CHO-K1
Summary of the method: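 CHO-K1 cells expressing human 5-HT7, 3000 per well in Krebs-Ringer HEPES with 1 mM IBMX, were exposed for 30 minutes at room temperature to compound plus reference agonist at its EC80. cAMP was read by HTRF after 1 hour; compounds were tested in duplicate from 0.3 to 10,000 nM.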

[1] = read-out: 5-HT2A (IC50), CHO-K1 cells expressing human 5-HT2A, reference agonist at EC80, IP-One
[2] = 5-HT2A (IC50), CHO-K1 cells expressing human 5-HT2A, reference agonist at EC80, IP-One

T3 sequence (P34969 whole entry): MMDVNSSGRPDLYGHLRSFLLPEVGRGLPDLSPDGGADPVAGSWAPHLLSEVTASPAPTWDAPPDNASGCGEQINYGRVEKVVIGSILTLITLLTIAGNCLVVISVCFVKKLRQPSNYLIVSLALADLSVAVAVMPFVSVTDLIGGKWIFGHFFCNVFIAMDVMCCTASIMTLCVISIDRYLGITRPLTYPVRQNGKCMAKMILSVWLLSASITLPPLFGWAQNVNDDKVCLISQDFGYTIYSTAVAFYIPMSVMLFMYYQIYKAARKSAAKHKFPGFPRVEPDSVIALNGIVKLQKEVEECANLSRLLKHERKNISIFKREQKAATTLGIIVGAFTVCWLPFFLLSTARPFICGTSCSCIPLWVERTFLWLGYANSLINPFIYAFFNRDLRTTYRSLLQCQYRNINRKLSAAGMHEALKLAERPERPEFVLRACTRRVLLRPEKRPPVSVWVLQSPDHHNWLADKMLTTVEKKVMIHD
T2 sequence (P28223 whole entry): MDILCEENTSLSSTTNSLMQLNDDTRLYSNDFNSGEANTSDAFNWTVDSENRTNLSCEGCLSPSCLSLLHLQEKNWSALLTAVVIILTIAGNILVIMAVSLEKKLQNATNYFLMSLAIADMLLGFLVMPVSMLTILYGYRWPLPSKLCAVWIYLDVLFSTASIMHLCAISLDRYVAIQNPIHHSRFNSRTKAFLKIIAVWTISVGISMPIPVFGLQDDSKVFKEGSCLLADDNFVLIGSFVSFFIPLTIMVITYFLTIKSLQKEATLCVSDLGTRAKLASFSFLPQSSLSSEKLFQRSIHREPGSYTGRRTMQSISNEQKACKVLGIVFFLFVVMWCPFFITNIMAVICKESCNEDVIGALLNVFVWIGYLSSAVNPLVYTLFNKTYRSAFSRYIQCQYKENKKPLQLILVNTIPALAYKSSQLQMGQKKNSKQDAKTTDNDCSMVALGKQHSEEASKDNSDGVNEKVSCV

SMILES | EC50 (human TAAR1 receptors) [nM] | IC50 (human 5-HT2A receptor; [1]) [nM] | IC50 (human 5-HT7 receptor) [nM] | IC50 (human 5-HT2A receptor; [2]) [nM]
CNCC1Cc2cccc(F)c2Oc2ccccc21 (single isomer, unassigned) [Compound 87, (S*)-(4-fluoro-10,11-dihydrodibenzo[b,f]oxepin-10-yl)-N-methylmethanamine] | < 1000 | < 1000 | 1000 to 10000 | 
NCC1Cc2ccc(F)cc2Oc2ccccc21 (single isomer, unassigned) [Compound 89, (S*)-(3-fluoro-10,11-dihydrodibenzo[b,f]oxepin-10-yl)methanamine] | < 1000 |  | ≥ 10000 | < 1000
CNCC1Cc2ccc(F)cc2Oc2ccccc21 (single isomer, unassigned) [Compound 90, (R*)-(3-fluoro-10,11-dihydrodibenzo[b,f]oxepin-10-yl)-N-methylmethanamine] | > 10000 |  | 1000 to 10000 | < 1000
CNCC1Cc2ccc(F)cc2Oc2ccccc21 (single isomer, unassigned) [Compound 91, (S*)-(3-fluoro-10,11-dihydrodibenzo[b,f]oxepin-10-yl)-N-methylmethanamine] | < 1000 | < 1000 | < 1000 | 
NCC1Cc2ccccc2Oc2ccc(F)cc21 (single isomer, unassigned) [Compound 92, (R*)-(8-fluoro-10,11-dihydrodibenzo[b,f]oxepin-10-yl)methanamine] | < 1000 |  | ≥ 10000 | < 1000
CNCC1Cc2ccccc2Oc2ccc(F)cc21 (single isomer, unassigned) [Compound 94, (R*)-(8-fluoro-10,11-dihydrodibenzo[b,f]oxepin-10-yl)-N-methylmethanamine] | < 1000 |  | 1000 to 10000 | < 1000
CNCC1Cc2ccccc2Oc2ccc(F)cc21 (single isomer, unassigned) [Compound 95, (S*)-(8-fluoro-10,11-dihydrodibenzo[b,f]oxepin-10-yl)-N-methylmethanamine] | 1000 to 10000 | < 1000 | 1000 to 10000 | 
NCC1Cc2cc(F)ccc2Oc2ccccc21 (single isomer, unassigned) [Compound 96, (R*)-(2-fluoro-10,11-dihydrodibenzo[b,f]oxepin-10-yl)methanamine] | < 1000 |  | ≥ 10000 | < 1000
CNCC1Cc2cc(F)ccc2Oc2ccccc21 (single isomer, unassigned) [Compound 98, (R*)-(2-fluoro-10,11-dihydrodibenzo[b,f]oxepin-10-yl)-N-methylmethanamine] | < 1000 |  | 1000 to 10000 | < 1000
NCC1Cc2ccccc2Oc2c(F)cccc21 (single isomer, unassigned) [Compound 100, (R*)-(6-fluoro-10,11-dihydrodibenzo[b,f]oxepin-10-yl)methanamine] | < 1000 |  | ≥ 10000 | < 1000
NCC1Cc2ccccc2Oc2c(F)cccc21 (single isomer, unassigned) [Compound 101, (S*)-(6-fluoro-10,11-dihydrodibenzo[b,f]oxepin-10-yl)methanamine] | < 1000 |  | ≥ 10000 | > 10000
CNCC1Cc2ccccc2Oc2c(F)cccc21 (single isomer, unassigned) [Compound 102, (R*)-(6-fluoro-10,11-dihydrodibenzo[b,f]oxepin-10-yl)-N-methylmethanamine] | < 1000 |  | ≥ 10000 | < 1000
NCC1Cc2ccccc2Oc2cccc(F)c21 (single isomer, unassigned) [Compound 104, (R*)-(9-fluoro-10,11-dihydrodibenzo[b,f]oxepin-10-yl)methanamine] | < 1000 |  | ≥ 10000 | 1000 to 10000
NCC1Cc2ccccc2Oc2cccc(F)c21 (single isomer, unassigned) [Compound 105, (S*)-(9-fluoro-10,11-dihydrodibenzo[b,f]oxepin-10-yl)methanamine] | 1000 to 10000 |  | ≥ 10000 | > 10000
CNCC1Cc2ccccc2Oc2cccc(F)c21 (single isomer, unassigned) [Compound 106, (R*)-(9-fluoro-10,11-dihydrodibenzo[b,f]oxepin-10-yl)-N-methylmethanamine] | < 1000 |  | ≥ 10000 | < 1000
CNCC1Cc2ccccc2Oc2cccc(F)c21 (single isomer, unassigned) [Compound 107, (S*)-(9-fluoro-10,11-dihydrodibenzo[b,f]oxepin-10-yl)-N-methylmethanamine] | > 10000 |  | ≥ 10000 | 1000 to 10000
CCNCC1Cc2ccccc2Oc2cccnc21 (single isomer, unassigned) [Compound 109, (R*)-1-(10,11-dihydrobenzo-[6,7]oxepino[3,2-b]pyridin-11-yl)-N-ethylmethanamine] | < 1000 |  | ≥ 10000 | 1000 to 10000
CN(C)CC1Cc2ccccc2Oc2cccnc21 (single isomer, unassigned) [Compound 111, (R*)-1-(10,11-dihydro-benzo[6,7]oxepino[3,2-b]pyridin-11-yl)-N,N-dimethylmethanamine] | < 1000 |  | ≥ 10000 | 1000 to 10000
NCC1Cc2cc(Cl)ccc2Oc2cccnc21 (single isomer, unassigned) [Compound 120, (S*)-(8-chloro-10,11-dihydrobenzo[6,7]oxepino[3,2-b]pyridin-11-yl)methanamine] | < 1000 |  | ≥ 10000 | 1000 to 10000
NCC1Cc2cc(Cl)ccc2Oc2cccnc21 (single isomer, unassigned) [Compound 121, (R*)-(8-chloro-10,11-dihydrobenzo[6,7]oxepino[3,2-b]pyridin-11-yl)methanamine] | < 1000 |  | < 1000 | < 1000
CNCC1Cc2cc(Cl)ccc2Oc2cccnc21 (single isomer, unassigned) [Compound 122, (S*)-(8-chloro-10,11-dihydrobenzo[6,7]oxepino[3,2-b]pyridin-11-yl)-N-methylmethanamine] | < 1000 |  | 1000 to 10000 | < 1000
CNCC1Cc2cc(Cl)ccc2Oc2cccnc21 (single isomer, unassigned) [Compound 123, (R*)-(8-chloro-10,11-dihydrobenzo[6,7]oxepino[3,2-b]pyridin-11-yl)-N-methylmethanamine] | < 1000 | < 1000 | < 1000 | 
NCC1Cc2ccc(Cl)cc2Oc2cccnc21 (single isomer, unassigned) [Compound 124, (S*)-(7-chloro-10,11-dihydrobenzo[6,7]oxepino[3,2-b]pyridin-11-yl)methanamine] | < 1000 |  | ≥ 10000 | 1000 to 10000
NCC1Cc2ccc(Cl)cc2Oc2cccnc21 (single isomer, unassigned) [Compound 125, (R*)-(7-chloro-10,11-dihydrobenzo[6,7]oxepino[3,2-b]pyridin-11-yl)methanamine] | < 1000 |  | ≥ 10000 | > 10000
CNCC1Cc2ccc(Cl)cc2Oc2cccnc21 (single isomer, unassigned) [Compound 126, (S*)-(7-chloro-10,11-dihydrobenzo[6,7]oxepino[3,2-b]pyridin-11-yl)-N-methylmethanamine] | < 1000 |  | ≥ 10000 | < 1000

Reference: patent publication US20240245658A1, “TAAR1 AND SEROTONIN MODULATORS, AND PHARMACEUTICAL COMPOSITIONS, AND METHODS OF USE THEREOF” (Sunovion Pharmaceuticals Inc., priority 2021, published 2024)
